Laboratory results from patent US4778800A, “3-oxadiazole and 3-carboxylic acid beta-carboline derivatives, and their use as psychotropic agents” (Schering Aktiengesellschaft, priority 1985, dated 1988).
In brackets after ≈: the same amount, converted by molar mass.

Columns and labels:
benzodiazepine receptors = experiment: displacement of 3H-flunitrazepam from benzodiazepine receptors in vitro; assay type: binding; conditions: 3H-flunitrazepam 1.0 nM, 0° C., rat forebrain membranes, pH 7.1
benzodiazepine receptor = experiment: in vivo displacement of 3H-flunitrazepam binding on the benzodiazepine receptor in live brain; conditions: mice, normally i.p.; 3H-flunitrazepam i.v. after 15 minutes; 50% reduction of specific binding in forebrain
[1] = anticonvulsive action: stopping of spasms induced by pentylenetetrazole (pentazol); assay type: in vivo; conditions: Mus musculus, ip, 0.5 h; mice, i.p., pentazol 150 mg/kg s.c. 15-30 minutes later; protects 50% of animals from spasms and death (Litchfield and Wilcoxon); read-out: PTZ ED50
Procedure: In the pharmacological tests, the compounds according to the invention especially show anxiolytic and anticonvulsive effectiveness. For examination of the anticonvulsive action, stopping of spasms induced by pentylenetetrazole (pentazol) was examined. Pentazol is administered subcutaneously in an amount of 150 mg/kg as a hydrochloric acid solution (pH 2-3) 15-30 minutes after the intraperitoneal application of the test substance. This amount induces clonic and tonic spasms which lead to death in untreated animals. The number of mice which show spasms and the number of them that died 30 minutes after pentazol are recorded.
The ED50 values indicated in the table were determined according to the method of Litchfield and Wilcoxon (J. Pharmacol. exp. Ther. 96 (1949) […]) as the amount of antagonistically acting substance which protects 50% of the animals from spasms and death.

| SMILES | IC50 in vitro (benzodiazepine receptors) [ng/mL] | ED50 in vivo (benzodiazepine receptor) [mg/kg] | ED50 [1] [mg/kg] |
| --- | --- | --- | --- |
| CCOC(CC)c1cccc2[nH]c3cnc(-c4nc(CC)no4)c(C)c3c12 (stereo not drawn) [5-CH(C2 H5)OC2 H5, CH3, drawing 7, 3-[5-(3-ethyl-1,2,4-oxadiazol)yl]-4-methyl-5-(1-ethoxopropyl)-beta-carboline] | 0.4 (≈ 1.1 nM) | 3 | 0.6 |
| CCOC(C)c1ccc2[nH]c3cnc(-c4nc(CC)no4)c(CC)c3c2c1 (stereo not drawn) [6-CH(CH3)OC2 H5, C2 H5, drawing 9, 3-[5-(3-ethyl-1,2,4-oxadiazol)yl]-4-ethyl-6-(1-ethoxyethyl)-beta-carboline] | 0.7 (≈ 1.92 nM) | 1.1 | 2.3 |
| CCOC(=O)c1ncc2[nH]c3ccc(C(C)OCC(F)(F)F)cc3c2c1C (stereo not drawn) [6-CH(CH3)OCH2 CF3, CH3, COOC2 H5, 4-methyl-6-(1-(2,2,2-trifluoroethoxy)-ethyl)-beta-carboline-3-carboxylic acid ethyl ester] | 0.8 (≈ 2.1 nM) | 1.8 | 2.4 |
| CCOCc1cccc2[nH]c3cnc(C(=O)OCC)c(C)c3c12 [5-CH2 OC2 H5, CH3, COOC2 H5, reference compound] | 0.8 (≈ 2.56 nM) | 1.0 | > 100 |
| CCOC(=O)c1ncc2[nH]c3ccc(C(C)SCC)cc3c2c1C (stereo not drawn) [6-CH(CH3)SC2 H5, CH3, COOC2 H5, 4-methyl-6-(1-ethylthioethyl)-beta-carboline-3-carboxylic acid ethyl ester] | 1.2 (≈ 3.5 nM) | 0.43 | 4 |
| CCCOC(C)c1cccc2[nH]c3cnc(C(=O)OCC)c(C)c3c12 (stereo not drawn) [5-CH(CH3)OC3 H7, CH3, COOC2 H5, 5-(1-propoxyethyl)-4-methyl-beta-carboline-3-carboxylic acid ethyl ester] | 0.4 (≈ 1.18 nM) | 0.6 | 1 |
| CCOC(C)c1cccc2[nH]c3cnc(-c4nc(CC)no4)c(C)c3c12 (stereo not drawn) [5-CH(CH3)OC2 H5, CH3, drawing 6, 3-[5-(3-ethyl-1,2,4-oxadiazol)yl]-4-methyl-5-(1-ethoxyethyl)-beta-carboline] | 0.3 (≈ 0.856 nM) | 0.09 | 0.4 |
| CCCOC(C)c1cccc2[nH]c3cnc(C(=O)OC(C)C)c(C)c3c12 (stereo not drawn) [5-CH(CH3)OC3 H7, CH3, drawing 5] | 0.75 (≈ 2.12 nM) | 1.8 | 0.8 |
| CCOC(=O)c1ncc2[nH]c3cccc(COC)c3c2c1C [5-CH2 OCH3, CH3, COOC2 H5, reference compound] | 0.45 (≈ 1.51 nM) | 2.0 | > 100 |
| CCOC(CC)c1cccc2[nH]c3cnc(-c4nc(CC)no4)c(COC)c3c12 (stereo not drawn) [5-CH(C2 H5)OC2 H5, CH2 OCH3, drawing 8] | 0.2 (≈ 0.507 nM) | 3 | 0.3 |
